Read-outs that look alike come from different tables or passages of the source.
Assays:
[1] = test system: HCV replicon cells; assay: HCV replicon FRET / luciferase assay; assay type: cell-based, Hepatitis C virus
Description: The HCV FRET screening assay was performed in 96-well cell culture plates. The FRET peptide (Anaspec, Inc.) (Taliani et al., Anal. Biochem. 1996, 240, 60-67) contains a fluorescence donor, EDANS, near one end of the peptide and an acceptor, DABCYL, near the other end. The fluorescence of the peptide is quenched by […] resonance energy transfer (RET) between the donor and the acceptor, but as the NS3 protease cleaves the peptide the products are released from RET quenching and the fluorescence of the donor becomes apparent. The assay reagent was made as follows: 5× cell Luciferase cell culture lysis reagent from Promega (#E153A) diluted to 1× with dH2O, NaCl added to 150 mM final, the FRET peptide diluted to 20 μM final from a 2 mM stock.
To prepare plates, HCV replicon cells, with or without a Renilla luciferase reporter gene, were trypsinized and plated in a 96-well plate with titrated test compounds added in columns 3 through 12; columns 1 and 2 contained a control compound (HCV control inhibitor), and the bottom row contained cells with DMSO only. The plates were then placed in a CO2 incubator at 37° C.
Subsequent to addition of the test compounds described above (FRET Assay Preparation), at various times the plate was removed and Alamar blue solution (Trek Diagnostics, #00-100) was added to measure cellular toxicity. After reading in a Cytoflour 4000 instrument (PE Biosystems), plates were rinsed with PBS and then used for FRET assay by the addition of 30 ul of the FRET peptide assay reagent described above (FRET Assay Preparation) per well. The plate was then placed into the Cytoflour 4000 instrument which had been set to 340 excite/490 emission, automatic mode for up to 20 cycles and the plate read in a kinetic mode. Typically, the signal to noise using an endpoint analysis after the reads was at least three-fold. Alternatively, after Alamar blue reading, plates were rinsed with PBS, then used for luciferase assay using the Promega Dual-Glo Luciferase Assay System or the Promega EnduRen Live Cell Substrate assay.
Compound analysis was performed by quantification of the relative HCV replicon inhibition and the relative cytotoxicity values. To calculate cytoxicity values, the average Alamar Blue fluorescence signals from the control wells were set as 100% non-toxic. The individual signals in each of the compound test wells were then divided by the average control signal and multiplied by 100% to determine […]. To calculate the HCV replicon inhibition values, an average background value was obtained from the two wells containing the highest amount of HCV control inhibitor at the end of the assay period. These numbers were similar to those obtained from naïve Huh-7 cells. The background numbers were then subtracted from the average signal obtained from the control wells and this number was used as 100% activity. The individual signals in each of the compound test wells were then divided by the averaged control values after background subtraction and multiplied by 100% to determine percent activity. […] The two numbers generated for the compound plate, percent cytoxicity and percent activity, were used to determine compounds of interest for further analysis.

[2] = target: T1, HCV NS5B RdRp genotype 1b (Hepatitis C virus genotype 1b, UniProt Q9WMX2); assay: HCV NS5B RdRp enzyme assay (standard / modified); assay type: biochemical
T1 construct: The protein was expressed with an 18 amino acid C-terminal truncation to enhance the solubility; made in house; host or cells: E. coli BL21(DE3), pET21a vector
T1 sequence (Q9WMX2 2420-2992): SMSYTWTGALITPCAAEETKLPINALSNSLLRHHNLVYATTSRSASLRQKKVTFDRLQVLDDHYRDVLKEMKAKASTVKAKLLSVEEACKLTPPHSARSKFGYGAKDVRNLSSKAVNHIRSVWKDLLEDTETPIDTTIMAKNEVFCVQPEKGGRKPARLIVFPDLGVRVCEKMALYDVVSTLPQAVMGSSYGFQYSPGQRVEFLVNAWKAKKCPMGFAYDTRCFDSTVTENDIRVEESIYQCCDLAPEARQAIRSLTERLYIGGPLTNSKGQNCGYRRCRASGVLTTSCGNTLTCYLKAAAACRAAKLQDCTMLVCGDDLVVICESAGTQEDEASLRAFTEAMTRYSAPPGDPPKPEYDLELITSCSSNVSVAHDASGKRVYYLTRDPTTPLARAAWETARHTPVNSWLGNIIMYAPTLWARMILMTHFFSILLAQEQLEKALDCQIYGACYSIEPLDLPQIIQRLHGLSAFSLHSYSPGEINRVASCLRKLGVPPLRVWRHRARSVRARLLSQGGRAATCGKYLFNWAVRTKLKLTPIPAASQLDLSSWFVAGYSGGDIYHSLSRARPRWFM
Description: HCV NS5B RdRp Cloning, Expression, and Purification.
The cDNA encoding the NS5B protein of HCV, genotype 1b, was cloned into the pET21a expression vector. The protein was expressed with an 18 amino acid C-terminal truncation to enhance the solubility. The E. coli competent cell line BL21(DE3) was used for expression of the protein. Cultures were grown at 37° C. for ˜4 hours until the cultures reached an optical density of 2.0 at 600 nm. The cultures were cooled to 20° C. and induced with 1 mM IPTG. Fresh ampicillin was added to a final concentration of 50 μg/ml and the cells were grown overnight at 20° C.
The lysis buffer consisted of 20 mM Tris-HCl, pH 7.4, 500 mM NaCl, 0.5% triton X-100, 1 mM DTT, 1 mM EDTA, 20% glycerol, 0.5 mg/ml lysozyme, 10 mM MgCl2, 15 ug/ml deoxyribonuclease I, and Complete TM protease inhibitor tablets (Roche). After addition of the lysis buffer, frozen cell pellets were resuspended using a tissue homogenizer. To reduce the viscosity of the sample, aliquots of the lysate were sonicated on ice using a microtip attached to a Branson sonicator. The sonicated lysate was centrifuged at 100,000×g for 1 hr at 4° C. and filtered through a 0.2 μm filter unit (Corning).
The protein was purified using two sequential chromatography steps: Heparin sepharose CL-6B and polyU sepharose 4B (Pharmacia). The chromatography buffers were identical to the lysis buffer but contained no lysozyme, deoxyribonuclease I, MgCl2 or protease inhibitor and the NaCl concentration of the buffer was adjusted according to the requirements for charging the protein onto the column. Each column was eluted with a NaCl gradient which varied in length from 5-50 column volumes depending on the column type. […] The enzyme was aliquoted and stored at −80° C.
Standard HCV NS5B RdRp Enzyme Assay.
HCV RdRp genotype 1b assays were run in a final volume of 60 μl in 96 well plates (Corning 3600). The assay buffer is composed of 20 mM Hepes, pH 7.5, 2.5 mM KCl, 2.5 mM MgCl2, 1 mM DTT, 1.6 U RNAse inhibitor (Promega N2515), 0.01 mg/ml BSA (Sigma B6917), and 2% glycerol. All compounds were serially diluted (3-fold) in DMSO and diluted further in water such that the final concentration of DMSO in the assay was 2%. HCV RdRp genotype 1b enzyme was used at a final concentration of 28 nM. A polyA template was used at 6 nM, and a biotinylated oligo-dT12 primer was used at 180 nM final concentration. Template was obtained commercially (Amersham 27-4110). Biotinylated primer was prepared by Sigma Genosys. 3H-UTP was used at 0.6 μCi (0.29 μM total UTP). Reactions were initiated by the addition of enzyme, incubated at 30° C. for 60 min, and stopped by adding 25 μl of 50 mM EDTA containing SPA beads (4 μg/μl, Amersham RPNQ 0007). Plates were read on a Packard Top Count NXT after >1 hr incubation at room temperature.
Modified HCV NS5B RdRp Enzyme Assay.
A modified enzyme assay was performed essentially as described for the standard enzyme assay except for the following: The biotinylated oligo dT12 primer was precaptured on streptavidin-coated SPA beads by mixing primer and beads in assay buffer and incubating at room temperature for one hour. Unbound primer was removed after centrifugation. The primer-bound beads were resuspended in 20 mM Hepes buffer, pH 7.5 and used in the assay at final concentrations of 20 nM primer and 0.67 μg/μl beads. Order of addition in the assay: enzyme (1.75 nM) was added to diluted compound followed by the addition of a mixture of template (0.36 nM), 3H-UTP (0.6 μCi, 0.29 μM), and primer-bound beads, to initiate the reaction; concentrations given are final. Reactions were allowed to proceed for 4 hours at 30° C.
IC50 values for compounds were determined using seven different [I].

[3] = Hepatitis C virus, HCV replicon cells, FRET or luciferase activity, read-out: EC50
[4] = HCV replicon cells, FRET or luciferase activity
[5] = HCV NS5B RdRp genotype 1b enzyme

| SMILES | EC50 ([1]; Hepatitis C virus) [nM] | IC50 [2] [nM] | EC50 [1, 3] [nM] | EC50 [1, 4] [nM] | IC50 [2, 5] [nM] |
| --- | --- | --- | --- | --- | --- |
| COc1ccc2c(c1)C1CC1(C(=O)N1C3CCC1CN(C)C3)Cn1c-2c(C2CCCCC2)c2ccc(C(=O)NS(N)(=O)=O)cc21 (stereo not drawn) [drawing 38] | 1 to 500 | 1 to 500 | – | – | – |
| COc1ccc2c(c1)[C@@H]1CC1(C(=O)N1C3CCC1CN(C)C3)Cn1c-2c(C2CCCCC2)c2ccc(C(=O)NS(=O)(=O)C3CCC3)cc21 (stereo partly drawn) | – | 1 to 500 | 1 to 500 | – | – |
| CCN(C)S(=O)(=O)NC(=O)c1ccc2c(C3CCCCC3)c3n(c2c1)CC1(C(=O)N2C4CCC2CN(C)C4)CC1c1cc(OC)ccc1-3 (stereo not drawn) [drawing 96] | 1 to 500 | 1 to 500 | – | – | – |
| COc1cccc2c1C1CC1(C(=O)N1C3CCC1CN(C)C3)Cn1c-2c(C2CCCCC2)c2ccc(C(=O)O)cc21 (stereo not drawn) | 1 to 500 | 1 to 500 | – | – | – |
| CCN(CC)S(=O)(=O)NC(=O)c1ccc2c(C3CCCCC3)c3n(c2c1)CC1(C(=O)N2C4CCC2CN(C)C4)CC1c1cc(OC)ccc1-3 (stereo not drawn) [drawing 110] | – | – | – | 1 to 500 | 1 to 500 |
| COc1ccc2c(c1)C1CC1(C(=O)N1C3CCC1CN(C)C3)Cn1c-2c(C2CCCCC2)c2ccc(C(=O)NS(C)(=O)=O)cc21 (stereo not drawn) [drawing 102] | – | – | – | 1 to 500 | 1 to 500 |
| CNS(=O)(=O)NC(=O)c1ccc2c(C3CCCCC3)c3n(c2c1)CC1(C(=O)N2C4CCC2CN(C)C4)CC1c1cc(OC)ccc1-3 (stereo not drawn) [drawing 47] | – | – | – | 1 to 500 | 1 to 500 |
| CCN(CC)S(=O)(=O)NC(=O)c1ccc2c(C3CCCCC3)c3n(c2c1)CC1(C(=O)N2C4CCC2CN(C)C4)CC1c1cc(OC)ccc1-3 (stereo not drawn) [drawing 97] | 1 to 500 | 1 to 500 | – | – | – |
| COc1ccc2c(c1)C1CC1(C(=O)N1C3CCC1CN(c1ccccn1)C3)Cn1c-2c(C2CCCCC2)c2ccc(C(=O)NS(=O)(=O)N(C)C)cc21 (stereo not drawn) [drawing 41] | 1 to 500 | 1 to 500 | – | – | – |
| COc1ccc2c(c1)C1CC1(C(=O)N1C3CCC1CN(C)C3)Cn1c-2c(C2CCCCC2)c2ccc(C(=O)NS(=O)(=O)N3CCOCC3)cc21 (stereo not drawn) [drawing 31] | 1 to 500 | 1 to 500 | – | – | – |
| COc1ccc2c(c1)C1CC1(C(=O)N1C3CCC1CN(C(C)C)C3)Cn1c-2c(C2CCCCC2)c2ccc(C(=O)NS(=O)(=O)N(C)C)cc21 (stereo not drawn) [drawing 37] | 1 to 500 | 1 to 500 | – | – | – |
| CCS(=O)(=O)NC(=O)c1ccc2c(C3CCCCC3)c3n(c2c1)CC1(C(=O)N2C4CCC2CN(C)C4)CC1c1cc(OC)ccc1-3 (stereo not drawn) [drawing 104] | – | – | – | 1 to 500 | 1 to 500 |
| COc1ccc2c(c1)C1CC1(C(=O)N1C3CCC1CN(C)C3)Cn1c-2c(C2CCCCC2)c2ccc(C(=O)NS(=O)(=O)N3CCC3)cc21 (stereo not drawn) [drawing 30] | – | – | – | 1 to 500 | 1 to 500 |
| COc1ccc2c(c1)C1CC1(CN1C3CCC1CN(C)C3)Cn1c-2c(C2CCCCC2)c2ccc(C(=O)NS(=O)(=O)N(C)C)cc21 (stereo not drawn) | 1 to 500 | 1 to 500 | – | – | – |
| COc1ccc2c(c1)C1CC1(C(=O)N1C3CCC1CN(C)C3)Cn1c-2c(C2CCCCC2)c2ccc(C(=O)NS(=O)(=O)CC(F)F)cc21 (stereo not drawn) | 1 to 500 | 1 to 500 | – | – | – |
| CCCCS(=O)(=O)NC(=O)c1ccc2c(C3CCCCC3)c3n(c2c1)CC1(C(=O)N2C4CCC2CN(C)C4)CC1c1cc(OC)ccc1-3 (stereo not drawn) | 1 to 500 | 1 to 500 | – | – | – |
| CNS(=O)(=O)NC(=O)c1ccc2c(C3CCCCC3)c3n(c2c1)CC1(C(=O)N2[C@@H]4CC[C@H]2CN(C)C4)CC1c1cc(OC)ccc1-3 (stereo partly drawn) [drawing 56] | – | – | – | 1 to 500 | 1 to 500 |
| COc1ccc2c(c1)C1CC1(C(=O)N1C3CCC1CNC3)Cn1c-2c(C2CCCCC2)c2ccc(C(=O)NS(=O)(=O)N(C)C)cc21 (stereo not drawn) [drawing 34] | 1 to 500 | 1 to 500 | – | – | – |
| CCC(C)S(=O)(=O)NC(=O)c1ccc2c(C3CCCCC3)c3n(c2c1)CC(C(=O)N1C2CCC1CN(C)C2)=Cc1cc(OC)ccc1-3 (stereo not drawn) | 1 to 500 | 1 to 500 | – | – | – |
| COc1ccc2c(c1)C1CC1(C(=O)N1C3CCC1CN(C(=O)OCc1ccccc1)C3)Cn1c-2c(C2CCCCC2)c2ccc(C(=O)NS(=O)(=O)N(C)C)cc21 (stereo not drawn) | 1 to 500 | 1 to 500 | – | – | – |
| CN1CC2CCC(C1)N2C(=O)C12CC1c1cc(OC(F)F)ccc1-c1c(C3CCCCC3)c3ccc(C(=O)NS(=O)(=O)N(C)C)cc3n1C2 (stereo not drawn) [drawing 103] | – | – | – | 1 to 500 | 1 to 500 |
| COc1ccc2c(c1)C1CC1(C(=O)N1C3CCC1CN(C)C3)Cn1c-2c(C2CCCCC2)c2ccc(C(=O)NS(=O)(=O)NC3CC3)cc21 (stereo not drawn) [drawing 68] | – | – | – | 1 to 500 | 1 to 500 |
| CCC(CC)S(=O)(=O)NC(=O)c1ccc2c(C3CCCCC3)c3n(c2c1)CC1(C(=O)N2C4CCC2CN(C)C4)CC1c1cc(OC)ccc1-3 (stereo not drawn) | > 110 | 1 to 500 | – | – | – |
| CN1CC2CCC(C1)N2C(=O)C12CC1c1cc(OCc3ccccc3)ccc1-c1c(C3CCCCC3)c3ccc(C(=O)NS(=O)(=O)N(C)C)cc3n1C2 (stereo not drawn) [drawing 43] | 1 to 500 | 1 to 500 | – | – | – |
| COc1ccc2c(c1)[C@@H]1CC1(C(=O)N1C3CCC1CN(C)C3)Cn1c-2c(C2CCCCC2)c2ccc(C(=O)NS(=O)(=O)CC(C)C)cc21 (stereo partly drawn) | – | 1 to 500 | 1 to 500 | – | – |
| CNS(=O)(=O)NC(=O)c1ccc2c(C3CCCCC3)c3n(c2c1)CC1(C(=O)N2C4CCC2CN(C)C4)CC1c1cc(OC)ccc1-3 (stereo not drawn) [drawing 48] | – | – | – | 1 to 500 | 1 to 500 |
| COc1ccc2c(c1)C1CC1(C(=O)N1CC3CCC(C1)N3)Cn1c-2c(C2CCCCC2)c2ccc(C(=O)NS(=O)(=O)N(C)C)cc21 (stereo not drawn) | 1 to 500 | 1 to 500 | – | – | – |

From patent US20130171098A1, “Cyclopropyl Fused Indolobenzazepine HCV NS5B Inhibitors” (priority 2006, published 2013)
